According to PMC12073298, “Design, Synthesis, and Biological Evaluation of Naphthoquinone Salts as Anticancer Agents” (Molecules, 2025):
Read-outs that look alike come from different tables or passages of the source.

Columns and labels:
[1] = test system: human endometrial cancer cells (HEC1A); settings: previous study, cited from earlier work
[2] = test system: human endometrial cancer cells (HEC1A); assay: MTT cell viability assay, HEC1A cells; type: cell-based; settings: for IC50: 48 h, HEC1A cells, MTT, n = 3 biological replicates, read-out: Mean IC50 (μM) HEC1A ± SD; for Selectivity Ratio: IC50 value from MAD11 cells divided by the IC50 value from HEC1A cells
Protocol: (§1) The cytotoxic effects of the synthesized salt compounds were assessed against human endometrial cancer cells (HEC1A) and normal endometrial stromal cells (MAD11) using the MTT cell viability assay. BH10 was used as the reference compound.
(§2) Reagents and equipment: phosphate-buffered saline (PBS) (Sigma Aldrich, St. Louis, MO, USA), 10× Trypsin-EDTA solution (Sigma Aldrich, 59418C), Dulbecco’s Modified Eagle’s Medium (Sigma Aldrich), foetal bovine serum (FBS), and 100× penicillin-streptomycin solution (Sigma Aldrich P4333). The MTT reagent was prepared by dissolving 5 mg/mL MTT powder in sterile PBS, followed by filtration, whereas the MTT solvent contained 4 mM HCl and 0.1% Nonidet P-40 in isopropanol. Dimethyl sulfoxide (DMSO) was also sourced from Sigma Aldrich. Absorbance measurements were acquired using Kaleido 1.0 software coupled with an EnSight™ HH3400 Multimode Plate Reader (PerkinElmer, Waltham, MA, USA). HEC-1-A endometrial cancer cells were obtained from ATCC, while MAD11 endometrial stromal cells were provided by Dr. Hui Li (University of Virginia). MAD11 cells, derived from non-cancerous donors, were immortalized via human telomerase reverse transcriptase (hTERT).
(§3) Method: The methods were adapted from Byrne et al. (2014). Cells were cultured in DMEM supplemented with 10% FBS and 1% Pen-Strep solution (100 U/mL penicillin and 0.1 mg/mL streptomycin). Upon reaching ~70% confluence, the cells were washed with sterile PBS and detached using a 1× trypsin-EDTA solution. The cells were then resuspended in culture media, counted, and seeded into sterile 96-well tissue culture plates (2500 cells per well for MAD11; 5000 cells per well for HEC-1-A). The cells were incubated at 37 °C with 5% CO2 for 24 h prior to drug treatment. Drugs were serially diluted in culture medium to final concentrations of 100, 50, 25, 12.5, 6.3, 3.1, 1.6, and 0.8 µM per well and applied in triplicate. For compounds 7a–f and 15, as their IC₅₀ values were below 0.8 µM, an additional set of three biological replicates was conducted using a lower concentration range (500, 250, 125, 63, 31, 16, 8, and 4 nM). To minimize variations due to DMSO (vehicle), both drug dilutions and control wells received the same final concentration of DMSO. After 48 h of incubation at 37 °C with 5% CO2, cell viability was assessed by adding 20 µL/well of MTT reagent for 3 h. Supernatants were aspirated, and formazan crystals were dissolved in MTT solvent before absorbance was measured at 590/620 nm using an EnSight™ HH3400 Multimode Plate Reader. Cell viability was expressed as a percentage of the vehicle (DMSO-treated) control, with results reported as mean ± SEM from three independent experiments. IC50 values were determined using GraphPad Prism 9.

[3] = test system: normal endometrial stromal cells (MAD11); assay: MTT cell viability assay, MAD11 cells; type: cell-based, human; settings: MAD11 non-cancerous cells, n = 3 biological replicates, read-out: Mean IC50 (μM) MAD11 ± SD
Protocol: as §1, §2, §3

[4] = cell line not printed here, read-out: IC50 (anticancer potency of starting materials)
[5] = non-salt parent compounds, read-out: IC50 of parent naphthoimidazole analogues

Compound | IC50 ([2]; Homo sapiens, HEC-1-A) [µM] | Selectivity Ratio [2] | IC50 ([3]; Homo sapiens, MAD11, 48 h) [µM] | also measured
O=C1C=C(NCCN2CCOCC2)C(=O)c2ccccc21 [Compound 1a] | – | – | – | IC50 [1, 4]: > 40 µM
CC1=C(NCCN2CCOCC2)C(=O)c2ccccc2C1=O [Compound 1h] | – | – | – | IC50 [1, 4]: > 40 µM
C[N+]1(CCNC2=CC(=O)c3ccccc3C2=O)CCOCC1.[I-] [Compound 2a, 4-(2-((1,4-Dioxo-1,4-dihydronaphthalen-2-yl)amino)ethyl)-4-methylmorpholin-4-ium iodide] | 21.1 ± 2.99 | >4.73 | > 100 | –
C[N+]1(CCCNC2=CC(=O)c3ccccc3C2=O)CCCCC1 [Compound 2b, 1-(3-((1,4-Dioxo-1,4-dihydronaphthalen-2-yl)amino)propyl)-1-methylpiperidin-1-ium iodide] | > 100 | – | > 100 | –
C[N+](C)(C)CCNC1=C(Cl)C(=O)c2ccccc2C1=O [Compound 2c, 2-((3-Chloro-1,4-dioxo-1,4-dihydronaphthalen-2-yl)amino)-N,N,N-trimethylethan-1-aminium iodide] | 97.2 ± 8.2 | – | > 100 | –
C[N+]1(CCNC2=C(Cl)C(=O)c3ccccc3C2=O)CCCCC1.[I-] [Compound 2d, 1-(2-((3-Chloro-1,4-dioxo-1,4-dihydronaphthalen-2-yl)amino)ethyl)-1-methylpiperidin-1-ium iodide] | 58.8 ± 3.01 | >1.70 | > 100 | –
C[N+](C)(C)CCCNC1=C(Cl)C(=O)c2ccccc2C1=O [Compound 2e, 3-((3-Chloro-1,4-dioxo-1,4-dihydronaphthalen-2-yl)amino)-N,N,N-trimethylpropan-1-aminium iodide] | > 100 | – | > 100 | –
C[N+]1(CCCNC2=C(Cl)C(=O)c3ccccc3C2=O)CCOCC1 [Compound 2f, 4-(3-((3-Chloro-1,4-dioxo-1,4-dihydronaphthalen-2-yl)amino)propyl)-4-methylmorpholin-4-ium iodide] | > 100 | – | > 100 | –
C[N+]1(CCNC2=C(Br)C(=O)c3ccccc3C2=O)CCOCC1.[I-] [Compound 2g, 4-(2-((3-Bromo-1,4-dioxo-1,4-dihydronaphthalen-2-yl)amino)ethyl)-4-methylmorpholin-4-ium iodide] | 23.8 ± 4.17 | >4.20 | > 100 | –
CC1=C(NCC[N+]2(C)CCOCC2)C(=O)c2ccccc2C1=O [Compound 2h, 4-Methyl-4-(2-((3-methyl-1,4-dioxo-1,4-dihydronaphthalen-2-yl)amino)ethyl)morpholin-4-ium iodide] | 95.5 ± 14.7 | – | > 100 | –
Cc1n(C)c2c([n+]1C)C(=O)c1ccccc1C2=O.[Br-] [Compound 7a, 1,2,3-Trimethyl-4,9-dioxo-4,9-dihydro-1H-naphtho [2,3-d]imidazol-3-ium bromide] | 0.00953 ± 0.0007 | 6.89 | – | IC50 ([3]; 48 h): 0.0657 ± 0.00641 µM
Cc1n(C)c2c([n+]1C)C(=O)c1c(cccc1[N+](=O)[O-])C2=O.[Br-] [Compound 7b, 1,2,3-Trimethyl-5-nitro-4,9-dioxo-4,9-dihydro-1H-naphtho [2,3-d]imidazol-3-ium bromide] | 0.023 ± 0.0033 | 41.43 | 0.952 ± 0.215 | –
Cc1n(C)c2c([n+]1C)C(=O)c1cc([N+](=O)[O-])ccc1C2=O.[Br-] [Compound 7c, 1,2,3-Trimethyl-6-nitro-4,9-dioxo-4,9-dihydro-1H-naphtho [2,3-d]imidazol-3-ium bromide] | 0.0288 ± 0.0014 | 2.37 | 0.0685 ± 0.0061 | –
COc1ccc2c(c1)C(=O)c1c(n(C)c(C)[n+]1C)C2=O [Compound 7d, 6-Methoxy-1,2,3-trimethyl-4,9-dioxo-4,9-dihydro-1H-naphtho [2,3-d]imidazol-3-ium bromide] | 0.0256 ± 0.0021 | – | 0.194 ± 0.0191 | –
Cc1ccc2c(c1)C(=O)c1c([n+](C)c(C)n1C)C2=O [Compound 7e, 1,2,3,7-Tetramethyl-4,9-dioxo-4,9-dihydro-1H-naphtho [2,3-d]imidazol-3-ium bromide] | 0.0149 ± 0.0012 | – | 0.101 ± 0.0124 | –
Cc1n(C)c2c([n+]1C)C(=O)c1ccncc1C2=O.[Br-] [Compound 7f, 1,2,3-Trimethyl-4,9-dioxo-4,9-dihydro-3H-imidazo [4,5-g]isoquinolin-1-ium bromide] | 0.472 ± 0.0378 | 10.16 | 4.8 ± 0.327 | loss in potency relative to 7a ([2]; Figure 3, SAR summary): ~ 50 fold
Cc1n(C)c2cc3ccccc3cc2[n+]1C.[I-] [Compound 9, 1,2,3-Trimethyl-1H-naphtho [2,3-d]imidazol-3-ium iodide] | 24.9 | 2.70 | 64.6 ± 14 | IC50 [2]: 23.9 ± 2.97 µM
Cc1n(C)c2ccccc2[n+]1C [Compound 11, 1,2,3-Trimethyl-1H-benzo[d]imidazol-3-ium iodide] | > 100 | – | > 100 | –
Cn1c[n+](C)c2ccccc21 [Compound 13, 1,3-Dimethyl-1H-benzo[d]imidazol-3-ium iodide] | > 100 | – | > 100 | –
Cc1n(C)c2c([n+]1C)C(=O)c1ccccc1C2=O.[I-] [Compound 15, 1,2,3-Trimethyl-4,9-dioxo-4,9-dihydro-1H-naphtho [2,3-d]imidazol-3-ium iodide] | – | 11.43 | – | IC50 [2]: 0.0135 ± 0.0009 µM; IC50 ([3]; 48 h): 0.154 ± 0.0109 µM
O=C1c2ccccc2C(=O)c2c1nc(C(F)(F)F)n2Cc1cn(CCN2CCOCC2)nn1 [Compound 16a] | – | – | – | selectivity of parent naphthoimidazole analogues ([1]; non-salt parent compounds): 1.73; IC50 [1, 5]: 18.1 µM
O=C1c2ccccc2C(=O)c2c1nc(C(F)(F)F)n2Cc1cn(CCN2CCCCC2)nn1 [Compound 16b] | – | – | – | selectivity of parent naphthoimidazole analogues ([1]; non-salt parent compounds): 2.01
O=C1c2ccccc2C(=O)c2c1nc(C(F)(F)F)n2Cc1cn(CCCN2CCCCC2)nn1 [Compound 16c] | – | – | – | selectivity of parent naphthoimidazole analogues ([1]; non-salt parent compounds): 2.77; IC50 [1, 5]: 2.6 µM
C[N+]1(CCn2cc(Cn3c(C(F)(F)F)nc4c3C(=O)c3ccccc3C4=O)nn2)CCOCC1.[I-] [Compound 17a, 4-(2-(4-((4,9-Dioxo-2-(trifluoromethyl)-4,9-dihydro-1H-naphtho [2,3-d]imidazol-1-yl)methyl)-1H-1,2,3-triazol-1-yl)ethyl)-4-methylmorpholin-4-ium iodide] | 11.2 ± 2.63 | 9.93 | 111 ± 45 | –
C[N+]1(CCn2cc(Cn3c(C(F)(F)F)nc4c3C(=O)c3ccccc3C4=O)nn2)CCCCC1.[I-] [Compound 17b, 1-(2-(4-((4,9-Dioxo-2-(trifluoromethyl)-4,9-dihydro-1H-naphtho [2,3-d]imidazol-1-yl)methyl)-1H-1,2,3-triazol-1-yl)ethyl)-1-methylpiperidin-1-ium iodide] | 6.79 ± 1 | >14.73 | > 100 | –
C[N+]1(CCCn2cc(Cn3c(C(F)(F)F)nc4c3C(=O)c3ccccc3C4=O)nn2)CCCCC1.[I-] [Compound 17c, 1-(3-(4-((4,9-Dioxo-2-(trifluoromethyl)-4,9-dihydro-1H-naphtho [2,3-d]imidazol-1-yl)methyl)-1H-1,2,3-triazol-1-yl)propyl)-1-methylpiperidin-1-ium iodide] | 5.62 ± 1.43 | >17.79 | > 100 | –
Cc1nc2c(n1CCCN1CCCCC1)C(=O)c1ccccc1C2=O [Compound 18] | – | – | – | selectivity of parent naphthoimidazole analogues ([1]; non-salt parent compounds): 3.59; IC50 [1, 5]: 6.4 µM
Cc1nc2c(n1CCC[N+]1(C)CCCCC1)C(=O)c1ccccc1C2=O.[I-] [Compound 19, 1-Methyl-1-(3-(2-methyl-4,9-dioxo-4,9-dihydro-1H-naphtho [2,3-d]imidazol-1-yl)propyl) piperidin-1-ium iodide] | 6.35 ± 1.41 | 6.42 | 40.8 ± 14.1 | –
